Assay results from patent US9512142B2, “Tricyclic triazolic compounds” (LABORATORIOS DEL DR. ESTEVE S.A., priority 2013, dated 2016).
pKi: −log10 of the molar value. Read-outs that look alike come from different tables or passages of the source.

Experiments:
[1] = Kinetic solubility; format: physicochemical; details: kinetic from dmso stock, buffered aqueous solution at pH=7.4, 10 μL of 10 mM DMSO solution in 1 mL, stirred 4 hours, supernatant by liquid chromatography, read-out: Kin. Solub.
Description: To a buffered aqueous solution at pH=7.4 (1 mL), a 10 mM DMSO solution of the test compound (10 μL) was added and the mixture stirred for 4 hours. After centrifugation, the compound concentration in the supernatant was determined by liquid chromatography by fitting in a calibration curve of the compound.

[2] = molecular target: T1, human sigma 1 receptor (Homo sapiens, UniProt Q99720); test: Human sigma 1 receptor radioligand assay ([3H](+)-pentazocine, transfected HEK-293 membranes); format: binding
T1 construct: expressed in transfected cells; host or cells: HEK-293
Description: Human Sigma 1 Receptor Radioligand Assay
The assay was carried out with 7 μg of membrane suspension, 5 nM of [^3H](+)-pentazocine in either absence or presence of either buffer or 10 μM Haloperidol for total and non-specific binding, respectively. Binding buffer contained Tris-HCl 50 mM at pH 8. Plates were incubated at 37° C. for 120 minutes. After the incubation period, the reaction mix was then transferred to MultiScreen HTS, FC plates (Millipore), filtered and plates were washed 3 times with ice-cold 10 mM Tris-HCL (pH7.4). Filters were dried and counted at approximately 40% efficiency in a MicroBeta scintillation counter (Perkin-Elmer) using EcoScint liquid scintillation cocktail.

[3] = buffered aqueous solution, pH 7.4, aqueous buffer
[4] = 5 nM [3H](+)-pentazocine, transfected HEK-293 membranes, 37° C., 120 minutes, read-out: Ki

T1 sequence (Q99720 whole entry): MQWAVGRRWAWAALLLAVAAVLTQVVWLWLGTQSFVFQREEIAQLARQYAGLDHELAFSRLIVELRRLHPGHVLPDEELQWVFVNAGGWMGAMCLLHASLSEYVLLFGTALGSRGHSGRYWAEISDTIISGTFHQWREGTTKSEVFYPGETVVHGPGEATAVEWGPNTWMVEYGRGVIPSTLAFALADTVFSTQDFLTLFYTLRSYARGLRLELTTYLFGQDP

| SMILES | solubility at 4 h [1, 3] [µM] | pKi [2, 4] | solubility at 4 h ([1]; aqueous buffer) [µM] | pKi [2] |
| --- | --- | --- | --- | --- |
| Cl.Clc1ccc(-c2nnn3c2CO[C@@H]2CN(C[C@H]4CCOC4)C[C@H]23)c(Cl)c1 [Example 57, (5aR,8aR)-3-(2,4-dichlorophenyl)-7-(((R)-tetrahydrofuran-3-yl)methyl)-4,5a,6,7,8,8a-hexahydropyrrolo[3,4-b][1,2,3]triazolo[1,5-d][1,4]oxazine hydrochloride] | > 10 | 6.71 |  |  |
| Cl.Fc1ccc(-c2nnn3c2CO[C@@H]2CN(Cc4ccoc4)C[C@H]23)cc1 (racemic) [Example 21, (5aRS,8aRS)-3-(4-fluorophenyl)-7-(furan-3-ylmethyl)-4,5a,6,7,8,8a-hexahydropyrrolo[3,4-b][1,2,3]triazolo[1,5-d][1,4]oxazine hydrochloride] |  | 7.78 | > 10 |  |
| Cl.Fc1ccc(-c2nnn3c2CO[C@H]2CN(C4CCOCC4)C[C@@H]23)cc1 [Example 4, (5aS,8aS)-3-(4-fluorophenyl)-7-(tetrahydro-2H-pyran-4-yl)-4,5a,6,7,8,8a-hexahydropyrrolo[3,4-b][1,2,3]triazolo[1,5-d][1,4]oxazine hydrochloride] |  | 7.64 | > 10 |  |
| Cl.Clc1ccc(-c2nnn3c2CO[C@@H]2CN(CCC4CCOCC4)C[C@H]23)c(Cl)c1 [Example 54, (5aR,8aR)-3-(2,4-dichlorophenyl)-7-(2-(tetrahydro-2H-pyran-4-yl)ethyl)-4,5a,6,7,8,8a-hexahydropyrrolo[3,4-b][1,2,3]triazolo[1,5-d][1,4]oxazine hydrochloride] | > 10 | 7.15 |  |  |
| Cc1occc1CN1C[C@@H]2OCc3c(-c4ccc(F)cc4F)nnn3[C@H]2C1.Cl [Example 61, (5aS,8aS)-3-(2,4-difluorophenyl)-7-((2-methylfuran-3-yl)methyl)-4,5a,6,7,8,8a-hexahydropyrrolo[3,4-b][1,2,3]triazolo[1,5-d][1,4]oxazine hydrochloride] | > 10 | 7.13 |  |  |
| Cl.c1ccc(-c2nnn3c2CO[C@H]2CN(C4CCOCC4)C[C@@H]23)nc1 [Example 31, (5aS,8aS)-3-(pyridin-2-yl)-7-(tetrahydro-2H-pyran-4-yl)-4,5a,6,7,8,8a-hexahydropyrrolo[3,4-b][1,2,3]triazolo[1,5-d][1,4]oxazine hydrochloride] |  |  | > 10 | 6.62 |
| Cl.c1ccc(CN2C[C@@H]3OCc4c(-c5ccccn5)nnn4[C@H]3C2)cc1 [Example 33, (5aS,8aS)-7-benzyl-3-(pyridin-2-yl)-4,5a,6,7,8,8a-hexahydropyrrolo[3,4-b][1,2,3]triazolo[1,5-d][1,4]oxazine hydrochloride] | > 10 | 6.65 |  |  |
| CCOc1ccc(CN2C[C@@H]3[C@@H](C2)OCc2c(-c4ccccc4F)nnn23)cn1.Cl [Example 19, (5aR,8aR)-7-((6-ethoxypyridin-3-yl)methyl)-3-(2-fluorophenyl)-4,5a,6,7,8,8a-hexahydropyrrolo[3,4-b][1,2,3]triazolo[1,5-d][1,4]oxazine hydrochloride] | > 10 | 7.08 |  |  |
| Cl.Fc1ccc(CN2C[C@@H]3[C@@H](C2)OCc2c(-c4ccncc4)nnn23)cc1 (racemic) [Example 26, (5aRS,8aRS)-7-(4-fluorobenzyl)-3-(pyridin-4-yl)-4,5a,6,7,8,8a-hexahydropyrrolo[3,4-b][1,2,3]triazolo[1,5-d][1,4]oxazine hydrochloride] |  | 6.88 | > 10 |  |
| COc1ccc(CN2C[C@@H]3[C@@H](C2)OCc2c(-c4ccc(F)cc4F)nnn23)cn1.Cl [Example 51, (5aR,8aR)-3-(2,4-difluorophenyl)-7-((6-methoxypyridin-3-yl)methyl)-4,5a,6,7,8,8a-hexahydropyrrolo[3,4-b][1,2,3]triazolo[1,5-d][1,4]oxazine hydrochloride] | > 10 | 6.63 |  |  |
| Cl.Fc1ccc(-c2nnn3c2CO[C@H]2CN(Cc4ccoc4)C[C@@H]23)c(F)c1 [Example 62, (5aS,8aS)-3-(2,4-difluorophenyl)-7-(furan-3-ylmethyl)-4,5a,6,7,8,8a-hexahydropyrrolo[3,4-b][1,2,3]triazolo[1,5-d][1,4]oxazine hydrochloride] | > 10 | 7.41 |  |  |
| Cl.Fc1ccccc1-c1nnn2c1CO[C@H]1CN(C[C@@H]3CCOC3)C[C@@H]12 [Example 17, (5aS,8aS)-3-(2-fluorophenyl)-7-(((S)-tetrahydrofuran-3-yl)methyl)-4,5a,6,7,8,8a-hexahydropyrrolo[3,4-b][1,2,3]triazolo[1,5-d][1,4]oxazine hydrochloride] | > 10 | 7.31 |  |  |
| Cc1cc(CN2C[C@@H]3OCc4c(-c5ccc(F)cc5F)nnn4[C@H]3C2)c(C)o1.Cl [Example 22, (5aS,8aS)-3-(2,4-difluorophenyl)-7-((2,5-dimethylfuran-3-yl)methyl)-4,5a,6,7,8,8a-hexahydropyrrolo[3,4-b][1,2,3]triazolo[1,5-d][1,4]oxazine hydrochloride] | > 10 | 6.93 |  |  |

Continued, in another order:

| solubility at 4 h [1, 3] [µM] | pKi [2, 4] | SMILES | solubility at 4 h ([1]; aqueous buffer) [µM] | pKi [2] |
| --- | --- | --- | --- | --- |
| > 10 | 7.69 | Cl.Fc1ccc(-c2nnn3c2CO[C@H]2CN(C4CCOCC4)C[C@@H]23)c(F)c1 [Example 27, (5aS,8aS)-3-(2,4-difluorophenyl)-7-(tetrahydro-2H-pyran-4-yl)-4,5a,6,7,8,8a-hexahydropyrrolo[3,4-b][1,2,3]triazolo[1,5-d][1,4]oxazine hydrochloride] |  |  |
| > 10 | 7.53 | Cl.Fc1ccccc1-c1nnn2c1CO[C@H]1CN(C[C@H]3CCOC3)C[C@@H]12 [Example 15, (5aS,8aS)-3-(2-fluorophenyl)-7-(((R)-tetrahydrofuran-3-yl)methyl)-4,5a,6,7,8,8a-hexahydropyrrolo[3,4-b][1,2,3]triazolo[1,5-d][1,4]oxazine hydrochloride] |  |  |
| > 10 | 7.93 | Cl.Fc1ccc(-c2nnn3c2CO[C@H]2CN(CCC4CCOCC4)C[C@@H]23)c(Cl)c1 [Example 48, (5aS,8aS)-3-(2-chloro-4-fluorophenyl)-7-(2-(tetrahydro-2H-pyran-4-yl)ethyl)-4,5a,6,7,8,8a-hexahydropyrrolo[3,4-b][1,2,3]triazolo[1,5-d][1,4]oxazine hydrochloride] |  |  |
| > 10 | 7.64 | Cl.Clc1ccc(-c2nnn3c2CO[C@H]2CN(C[C@@H]4CCOC4)C[C@@H]23)c(Cl)c1 [Example 56, (5aS,8aS)-3-(2,4-dichlorophenyl)-7-(((S)-tetrahydrofuran-3-yl)methyl)-4,5a,6,7,8,8a-hexahydropyrrolo[3,4-b][1,2,3]triazolo[1,5-d][1,4]oxazine hydrochloride] |  |  |
| > 10 | 7.42 | Cl.Fc1ccc(-c2nnn3c2CO[C@@H]2CN(Cc4ccoc4)C[C@H]23)c(F)c1 [Example 63, (5aR,8aR)-3-(2,4-difluorophenyl)-7-(furan-3-ylmethyl)-4,5a,6,7,8,8a-hexahydropyrrolo[3,4-b][1,2,3]triazolo[1,5-d][1,4]oxazine hydrochloride] |  |  |
| > 10 | 7.82 | Cl.Clc1ccc(-c2nnn3c2CO[C@H]2CN(C4CCOCC4)C[C@@H]23)c(Cl)c1 [Example 46, (5aS,8aS)-3-(2,4-dichlorophenyl)-7-(tetrahydro-2H-pyran-4-yl)-4,5a,6,7,8,8a-hexahydropyrrolo[3,4-b][1,2,3]triazolo[1,5-d][1,4]oxazine hydrochloride] |  |  |
